Numbers after ± are expanded uncertainties.
Assay: xn = mol fraction of the nth substance listed
Conditions: 322.9 K, Fluid (supercritical or subcritical phases), Pycnometric method

`CC1CCC(=O)O1` (stereo not given) [γ-valerolactone] + O=C=O showed a mass density (9870 kPa, x1 = 0.01) of 521 ± 18 kg/m3, a mass density (9890 kPa, x1 = 0.01) of 526 ± 15 kg/m3 and a mass density (9920 kPa, x1 = 0.01) of 529 ± 16 kg/m3. The mass density (9940 kPa, x1 = 0.01) was 532 ± 16 kg/m3, the mass density (9960 kPa, x1 = 0.01) was 535 ± 16 kg/m3 and the mass density (9980 kPa, x1 = 0.01) was 539 ± 16 kg/m3. It also gave a mass density (10000 kPa, x1 = 0.01) of 540 ± 21 kg/m3, a mass density (10020 kPa, x1 = 0.01) of 542 ± 15 kg/m3 and a mass density (10050 kPa, x1 = 0.01) of 547 ± 15 kg/m3. It also gave a mass density (10080 kPa, x1 = 0.01) of 550 ± 39 kg/m3, a mass density (10100 kPa, x1 = 0.01) of 554 ± 17 kg/m3 and a mass density (10110 kPa, x1 = 0.01) of 556 ± 17 kg/m3. It also gave a mass density (10140 kPa, x1 = 0.01) of 559 ± 4 kg/m3, a mass density (10170 kPa, x1 = 0.01) of 563 ± 9 kg/m3 and a mass density (10200 kPa, x1 = 0.01) of 566 ± 15 kg/m3. It also gave a mass density (10230 kPa, x1 = 0.01) of 576 ± 13 kg/m3, a mass density (10230 kPa, x1 = 0.025) of 673 ± 8 kg/m3 and a mass density (10240 kPa, x1 = 0.025) of 675 ± 8 kg/m3. It also gave a mass density (10260 kPa, x1 = 0.01) of 574 ± 14 kg/m3, a mass density (10270 kPa, x1 = 0.025) of 679 ± 14 kg/m3 and a mass density (10290 kPa, x1 = 0.01) of 578 ± 13 kg/m3. It also gave a mass density (10310 kPa, x1 = 0.025) of 683 ± 18 kg/m3, a mass density (10330 kPa, x1 = 0.01) of 582 ± 10 kg/m3 and a mass density (10370 kPa, x1 = 0.01) of 586 ± 13 kg/m3. It also gave a mass density (10370 kPa, x1 = 0.025) of 687 ± 10 kg/m3, a mass density (10380 kPa, x1 = 0.15) of 939 ± 4 kg/m3 and a mass density (10400 kPa, x1 = 0.01) of 590 ± 13 kg/m3. For the same molecule, the mass density (10430 kPa, x1 = 0.01) was 594 ± 12 kg/m3, the mass density (10440 kPa, x1 = 0.025) was 692 ± 11 kg/m3 and the mass density (10470 kPa, x1 = 0.01) was 598 ± 12 kg/m3. It also gave a mass density (10470 kPa, x1 = 0.025) of 696 ± 10 kg/m3, a mass density (10510 kPa, x1 = 0.05) of 766 ± 9 kg/m3 and a mass density (10520 kPa, x1 = 0.01) of 602 ± 8 kg/m3. The mass density (10540 kPa, x1 = 0.025) was 701 ± 11 kg/m3, the mass density (10550 kPa, x1 = 0.05) was 769 ± 9 kg/m3 and the mass density (10570 kPa, x1 = 0.01) was 606 ± 8 kg/m3. The mass density (10600 kPa, x1 = 0.05) was 771 ± 9 kg/m3, the mass density (10610 kPa, x1 = 0.025) was 705 ± 11 kg/m3 and the mass density (10620 kPa, x1 = 0.01) was 610 ± 10 kg/m3. For the same molecule, the mass density (10630 kPa, x1 = 0.1) was 881 ± 12 kg/m3, the mass density (10670 kPa, x1 = 0.025) was 710 ± 10 kg/m3 and the mass density (10680 kPa, x1 = 0.01) was 615 ± 11 kg/m3. It also gave a mass density (10700 kPa, x1 = 0.1) of 882 ± 7 kg/m3, a mass density (10720 kPa, x1 = 0.01) of 619 ± 10 kg/m3 and a mass density (10720 kPa, x1 = 0.05) of 776 ± 7 kg/m3. For the same molecule, the mass density (10750 kPa, x1 = 0.025) was 714 ± 11 kg/m3, the mass density (10770 kPa, x1 = 0.1) was 884 ± 5 kg/m3 and the mass density (10780 kPa, x1 = 0.01) was 624 ± 11 kg/m3. For the same molecule, the mass density (10820 kPa, x1 = 0.025) was 718 ± 9 kg/m3, the mass density (10840 kPa, x1 = 0.01) was 629 ± 12 kg/m3 and the mass density (10840 kPa, x1 = 0.1) was 885 ± 5 kg/m3. For the same molecule, the mass density (10860 kPa, x1 = 0.05) was 781 ± 7 kg/m3, the mass density (10880 kPa, x1 = 0.15) was 943 ± 4 kg/m3 and the mass density (10900 kPa, x1 = 0.01) was 633 ± 8 kg/m3. It also gave a mass density (10910 kPa, x1 = 0.025) of 723 ± 8 kg/m3, a mass density (10980 kPa, x1 = 0.01) of 638 ± 9 kg/m3 and a mass density (11000 kPa, x1 = 0.1) of 888 ± 6 kg/m3. For the same molecule, the mass density (11010 kPa, x1 = 0.05) was 787 ± 6 kg/m3, the mass density (11020 kPa, x1 = 0.025) was 727 ± 11 kg/m3 and the mass density (11040 kPa, x1 = 0.01) was 641 ± 9 kg/m3. For the same molecule, the mass density (11090 kPa, x1 = 0.025) was 732 ± 9 kg/m3, the mass density (11160 kPa, x1 = 0.01) was 650 ± 11 kg/m3 and the mass density (11180 kPa, x1 = 0.05) was 792 ± 6 kg/m3. For the same molecule, the mass density (11190 kPa, x1 = 0.025) was 737 ± 8 kg/m3, the mass density (11200 kPa, x1 = 0.15) was 945 ± 4 kg/m3 and the mass density (11230 kPa, x1 = 0.1) was 892 ± 9 kg/m3. For the same molecule, the mass density (11290 kPa, x1 = 0.01) was 657 ± 9 kg/m3, the mass density (11310 kPa, x1 = 0.025) was 742 ± 6 kg/m3 and the mass density (11380 kPa, x1 = 0.05) was 797 ± 6 kg/m3. For the same molecule, the mass density (11450 kPa, x1 = 0.025) was 747 ± 7 kg/m3, the mass density (11510 kPa, x1 = 0.01) was 667 ± 8 kg/m3 and the mass density (11540 kPa, x1 = 0.025) was 751 ± 6 kg/m3. For the same molecule, the mass density (11540 kPa, x1 = 0.1) was 897 ± 4 kg/m3, the mass density (11580 kPa, x1 = 0.05) was 803 ± 6 kg/m3 and the mass density (11700 kPa, x1 = 0.025) was 757 ± 7 kg/m3. It also gave a mass density (11760 kPa, x1 = 0.15) of 950 ± 4 kg/m3, a mass density (11800 kPa, x1 = 0.01) of 681 ± 7 kg/m3 and a mass density (11800 kPa, x1 = 0.05) of 808 ± 5 kg/m3. The mass density (11820 kPa, x1 = 0.025) was 763 ± 8 kg/m3, the mass density (11970 kPa, x1 = 0.025) was 768 ± 6 kg/m3 and the mass density (12010 kPa, x1 = 0.1) was 903 ± 4 kg/m3. For the same molecule, the mass density (12030 kPa, x1 = 0.01) was 691 ± 6 kg/m3, the mass density (12080 kPa, x1 = 0.05) was 814 ± 5 kg/m3 and the mass density (12130 kPa, x1 = 0.025) was 773 ± 9 kg/m3. The mass density (12140 kPa, x1 = 0.15) was 952 ± 4 kg/m3.
